Patent US20140315809A1, “CALCIMIMETICS AND METHODS FOR THEIR USE” (KAI PHARMACEUTICALS INC., priority 2011, published 2014)

Experiments:
Assay type in all cases: in vivo, rat
[1] = tested on: adenine-induced model of chronic renal failure in rats; assay: Creatinine suppression in adenine-induced chronic renal failure; conditions: 4 weeks
Description: (§1) The therapeutic efficacy Ac-c(C)rrarar-NH2, (SEQ ID NO:28) was assessed using an adenine-induced model of chronic renal failure in rats. The rats were obtained from Charles River Laboratories (Wilmington, Mass.). The rats were fed a low protein (2.5%), high phosphorus (0.92%) diet containing 0.75% adenine (Teklad Custom Diet). Animals were randomly assigned to receive daily subcutaneous doses of vehicle (10 mM succinic acid, 0.85% NaCl, 0.9% benzyl alcohol, pH 4.5) or Ac-c(C)rrarar-NH2 (SEQ ID NO:28) at 0.3 or 1 mg/kg (SC) for 4 weeks. A control group was fed the identical high phosphorus diet and tissues without adenine. Treatment was initiated at the start of diet. All experimental procedures with animals were performed according to IACUC guidelines. Statistical analysis was performed using one-way ANOVA with Bonferroni post test. All p-values are nominal.
Serum creatinine was measured using QuantiChrom™ kit (BioAssay Systems, Hayward, Calif.). Serum creatinine levels from vehicle-treated uremic animals were approximately 8-10 fold higher compared to the control group of non-uremic animals at the end of the 4 weeks. […] Uremic animals treated with Ac-c(C)rrarar-NH2 (SEQ ID NO:28) at a dose of 1 mg/kg Ac-c(C)rrarar-NH2 (SEQ ID NO:28) had approximately 50% lower serum creatinine levels compared with vehicle-treated controls.

[2] = tested on: adenine-induced model of chronic renal failure in rats; assay: Serum phosphorus, calcium and calcium-phosphorus product in adenine-induced chronic renal failure; conditions: uremic rats
Description: as §1
Phosphorus and calcium were determined using a Cobas c-501 analyzer.

[3] = tested on: adenine-induced model of chronic renal failure in rats; assay: Vascular calcification (Alizarin Red, von Kossa) in adenine-induced chronic renal failure; conditions: uremic rats
Description: as §1
The effects of Ac-c(C)rrarar-NH2 (SEQ ID NO:28) treatment of vascular calcification was also determined using adenine-induced rat model of chronic renal failure. After treatment with Ac-c(C)rrarar-NH2 (SEQ ID NO:28) at doses of 0.3 or 1 mg/kg for 4 weeks, the uremic rats were sacrificed and aortic tissue was analyzed. Aortic tissue was processed and stained by Alizarin Red and von Kossa methods to visualize vascular mineralization. Using a scoring system from 0-5, identical sections of von Kossa-stained aorta from all animals were scored in a blinded fashion.

[4] = tested on: adenine-induced model of chronic renal failure in rats; assay: Parathyroid gland weight in adenine-induced chronic renal failure; conditions: 0.3 or 1 mg/kg SC daily for 4 weeks
Description: as §1
The effects of Ac-c(C)rrarar-NH2 (SEQ ID NO:28) treatment on parathyroid gland enlargement was also determined using the adenine-induced rat model of chronic renal failure. After treatment with Ac-c(C)rrarar-NH2 (SEQ ID NO:28) at doses of 0.3 or 1 mg/kg for 4 weeks, the uremic rats were sacrificed and the parathyroid glands were removed, trimmed and weighed.

[5] = tested on: adenine-induced model of chronic renal failure in rats; assay: PTH suppression in adenine-induced chronic renal failure; conditions: uremic rats, 0.3 or 1 mg/kg SC daily for 2 and 4 weeks
Description: as §1
Plasma PTH was measured using the Immunotopics BioActive Intact ELISA (Immutopics, San Clemente, Calif.). Prior to dosing with Ac-c(C)rrarar-NH2 (SEQ ID NO:28), all treatment groups had similar plasma PTH levels. The no-adenine-control animals maintained consistent plasma PTH levels over the 4 week study.

[6] = 0.3 and 1 mg/kg SC daily for 4 weeks
[7] = 0.3 or 1 mg/kg SC daily for 4 weeks

Substance: Ac-c(C)rrarar-NH2
- serum creatinine levels versus vehicle-treated uremic rats ([1]; 0.3 and 1 mg/kg SC daily): significantly lower
- lower serum creatinine levels compared with vehicle-treated controls ([1]; uremic rats, 1 mg/kg SC daily): approximately 50%
- reduction in serum calcium-phosphorus product ([2]; 0.3 mg/kg SC daily for 4 weeks): ~20%
- reduction in serum calcium-phosphorus product ([2]; 1 mg/kg SC daily for 4 weeks): ~40%
- serum calcium compared to vehicle-treated rats [2, 6]: significant dose-dependent reduction
- serum phosphorus levels [2, 6]: significant reduction
- animals showing aortic mineralization ([3]; 0.3 mg/kg treatment group, 4 weeks): Only one animal
- aortic mineralization, Alizarin Red and Von Kossa staining [3, 7]: little or no mineralization
- von Kossa staining of aorta [3, 7]: no appreciable von Kossa staining
- parathyroid gland weight compared to non-uremic animals [4]: not significantly different in weight
- parathyroid gland weight compared to vehicle group ([4]; uremic rats): significantly reduced in weight
- plasma PTH versus vehicle-treated animals [5]: significantly lower
